The structures appear in SMILES notation.

Experimental findings from patent publication US11371055B2, “Herbicide resistance genes” (CORTEVA AGRISCIENCE LLC, priority 2005, dated 2022) are described below.

For assay [1], the system named is AAD-12 (v1) transformed T1 corn plants. Nature of the assay: Brace root injury of T1 corn after 2,4-D DMA. It is filed as in vivo, Zea mays. Conditions: 2240 g ae/ha 2,4-D DMA, V3-V4 stage, 14DAT. An excerpt: T1 AAD-12 (v1) seed were planted into 3-inch pots containing Metro Mix media and at 2 leaf stage were sprayed with 70 g ae/ha imazethapyr to eliminate nulls. Surviving plants were transplanted to 1-gallon pots containing Metro Mix media and placed in the same growth conditions as before. At V3-V4 stage the plants were sprayed in the track sprayer set to 187 L/ha at either 560 or 2240 g ac/ha 2,4-D DMA. Plants were graded at 3 and 14 DAT and compared to 5XH751×Hi II control plants. A grading scale of 0-10 (no injury to extreme auxin injury) was developed to distinguish brace root injury. Brace Root grades were taken on 14DAT to show 2,4-D tolerance. 2,4-D causes brace root malformation, and is a consistent indicator of auxinic herbicide injury in corn. […] Event “pDAB4101(0)001.001” was apparently unstable; however, the other two events were robustly tolerant to 2,4-D and 2,4-D+imazethapyr or 2,-4D+glyphosate (see Table 16).

The test system of assay [2] is AAD-12 (v1)-containing T0 soybean plants. Nature of the assay: 2,4-D spray application on T0 soybean. It is filed as in vivo, Glycine max. An excerpt:
Plants that are transferred to the greenhouse can be assayed for the presence of an active PAT gene further with a non-destructive manner by painting a section of leaf of the T0 primary transformant, or progeny thereof, with a glufosinate solution [0.05-2% v/v Liberty Herbicide, preferably 0.25-1.0% (v/v),=500-2000 ppm glufosinate, Bayer Crop Science]. Depending on the concentration used, assessment for glufosinate injury can be made 1-7 days after treatment. Plants can also be tested for 2,4-D tolerance in a non-destructive manner by selective application of a 2,4-D solution in water (0.25-1% v/v commercial 2,4-D dimethylamine salt formulation, preferably 0.5% v/v=2280 ppm 2,4-D ae) to the terminal leaflet of the newly expanding trifoliolate one or two, preferably two, nodes below the youngest emerging trifolioate. This assay allows assessment of 2,4-D sensitive plants 6 hours to several days after application by assessment of leaf flipping or rotation >90 degrees from the plane of the adjacent leaflets. Plants tolerant to 2,4-D will not respond to 2,4-D. To plants will be allowed to self fertilize in the greenhouse to give rise to T1 seed. T1 plants (and to the extent enough T0 plant clones are produced) will be sprayed with a range of herbicide doses to determine the level of herbicide protection afforded by AAD-12 (v1) and PAT genes in transgenic soybean. Rates of 2,4-D used on T0 plants will typically comprise one or two selective rates in the range of 100-1120 g ae/ha using a track sprayer as previously described. T1 plants will be treated with a wider herbicide dose ranging from 50-3200 g ae/ha 2,4-D. Likewise, T0 and T1 plants can be screened for glufosinate resistance by postemergence treatment with 200-800 and 50-3200 g ae/ha glufosinate, respectively. Glyphosate resistance (in plants transformed with constructs that contain EPSPS) or another glyphosate tolerance gene can be assessed in the T1 generation by postemergence applications of glyphosate with a dose range from 280-2240 g ae/ha glyphosate. Analysis of protein expression will occur as described in below. Individual T0 plants were assessed for the presence of the coding region of the gene of interest (AAD-12 (v1) or PAT v6) and copy number. Determination of the inheritance of AAD-12 (v1) will be made using T1 and T2 progeny segregation with respect to herbicide tolerance as described in previous examples. […]

For the next assay, the system named is T1 AAD-12 (v1) tobacco. Nature of the assay: Elevated 2,4-D DMA rates in greenhouse tobacco, AAD-12. It counts as in vivo, Nicotiana tabacum. An excerpt:
T1 AAD-12 (v1) plants from an event segregating 3R:1S when selected with 560 g ai/ha Liberty using the same protocol as previously described. T1 AAD-1 (v3) seed was also planted for transformed tobacco controls (see PCT/US2005/014737). Untransformed KY160 was served as the sensitive control. Plants were sprayed using a track sprayer set to 187 L/ha at 140, 560, 2240, 8960, and 35840 g ae/ha 2,4-D DMA and rated 3 and 14 DAT.

The mark [3] stands for this setting: event D-2-14 (pDAB4464, CsVMV), spray POST over the top 560 g ae/ha 2,4-D.
Where [4] appears, read: event D-3-5 (pDAB4468, AtUbi10), spray POST over the top 560 g ae/ha 2,4-D.
The mark [5] stands for this setting: event D-3-6 (pDAB4468, AtUbi10), spray POST over the top 560 g ae/ha 2,4-D.
Setting [6] is: event D-3-9 (pDAB4468, AtUbi10), spray POST over the top 1120 g ae/ha 2,4-D.
Where [7] appears, read: event D-4-17 (pDAB4468, AtUbi10), spray POST over the top 1120 g ae/ha 2,4-D.
Where [8] appears, read: event D-5-2 (pDAB4472, AtUbi3), spray POST over the top 560 g ae/ha 2,4-D.

As for `CNC.O=C(O)COc1ccc(Cl)cc1Cl` [2,4-D DMA], the “Average Brace Root Injury (0-10 Scale)” value was determined as 0 in assay [1] (event AAD-12 (v1) pDAB4101(0)005.001), 1 in assay [1] (event AAD-12 (v1) pDAB41011(0)003.003) and 8 in assay [1] (event AAD-12 (v1)pDAB4101(0)001.001).

Regarding `O=C(O)COc1ccc(Cl)cc1Cl` [2,4-D, 2,4-dichlorophenoxyacetic acid], the “response to herbicide spray application” value in assay [2] (560 or 1120 g ae 2,4-D) is given as “clearly resistant”. In addition, the “% injury 2 DAT” value stood at 0% in assay [2] (setting [3]); 0% in assay [2] (setting [4]); 0% in assay [2] (setting [5]); 0% in assay [2] (setting [6]); 5% in assay [2] (setting [7]); 5% in assay [2] (setting [8]). The “% injury 7 DAT” value in assay [2] (setting [3]), in assay [2] (setting [4]), in assay [2] (setting [5]), in assay [2] (setting [6]), in assay [2] (setting [7]) and in assay [2] (setting [8]) was 0% each time. Moreover, the “% injury 14 DAT” value in assay [2] (setting [3]), in assay [2] (setting [4]), in assay [2] (setting [5]), in assay [2] (setting [6]), in assay [2] (setting [7]) and in assay [2] (setting [8]) was 0% throughout. The “Average % injury 14 DAT” value in the assay with T1 AAD-12 (v1) tobacco (2240 g ae/ha 2,4-D) stood at 0%; in the assay with T1 AAD-12 (v1) tobacco (8960 g ae/ha 2,4-D), 0%; in the assay with T1 AAD-12 (v1) tobacco (35840 g ae/ha 2,4-D) it was 4%.
